Here are results for two compounds from patent US20240269212A1, “HEMP EXTRACT FOR TREATMENT OF PAIN, CANCER AND EPILEPSY IN ANIMALS” (Portland Technology Holdings LLC., priority 2021, published 2024).

Data set [1] in a line: Serum cannabinoid concentrations after 1 and 2 weeks of twice daily dosing (relative steady state). Format: in vivo, dog (beagle). The following applies: for concentration at 6 h: male, beagle, dog, 2 mg/kg, 2 mg/kg twice daily, six hours after the morning dose. From the text: Six intact male beagles all 2 years of age weighing between 18.6 and 22.2 kilograms body weight were housed at the Baker Institute for Animal Health and all procedures were approved by the Cornell University Institutional Animal Care and Use Committee (Protocol 2019-0001). All dogs underwent the fasted treatment trial for a two-week period and were then allowed 2 weeks of washout before beginning the fed stage of the trial which included ¼ of a 13 ounce can of a wet food (PURINA® Pro Plan Savory Chicken and Rice Formula, Nestle Purina, St. Louis, MO) at the time of dosing. Twenty-four hour pharmacokinetic analysis of serum cannabinoid levels was performed on day 1 after a single dose in the fed or fasted state. Then, twice daily dosing of treatment oil at both 7 am and 7 pm was performed on the following days for two weeks, and serum cannabinoids were measured. Prior to the study all dogs had blood drawn for a complete blood count and serum chemistry and again at the end of each phase of the 2 week study. Complete blood counts (white blood cells [WBC], hematocrit, hemoglobin, red blood cells [RBC], neutrophils, lymphocytes, platelets, monocytes, eosinophils, basophils) and serum biochemistry analyses (sodium, potassium, chloride, magnesium, calcium, phosphorus, albumin, total protein, globulin, urea nitrogen, creatinine, alkaline phosphatase [ALP], alanine aminotransferase [ALT], aspartate amino transferase [AST], cholesterol, total bilirubin, glucose and gamma glutamyl transferase [GGT]) were performed at the Cornell University Diagnostic Laboratory. For the fasted and fed portions of the 24 hour pharmacokinetic analysis study the dogs were administered 2 mg/kg body weight of an equal mix of 30 mg/mL CBG and 30 mg/mL CBGA from a hemp extract in a sesame oil base which was tested again at the end of the study showing virtually the same analytical profile. Two milliliters of blood was drawn via jugular venipuncture for all 6 dogs prior to the initial dose (0 hours) and then again at 0.5, 1, 2, 4, 8, 12 and 24 hours. Prior to enrollment all dogs involved in the study were deemed healthy based on physical examination. Behavioral observations were performed 2 hours after morning dosing for each phase of the trial. Behavioral observations were performed on day 1, day 3, day 7, and day 14. Physical and behavioral examinations were performed to assess for adverse events including diarrhea, vomiting, lethargy, somnolence, ataxia, or abnormal behavior within the colony. Due to the potential for CBG/CBGA to affect heart rate, dogs were assessed manually for resting heart rates for 30 seconds and extrapolated to relative beats per minute after initial dosing at time points 0, 1, 2, 4, 12, 24 and 48 hours and again at day 7 and day 14 after morning dosing for both the fed and fasted arms of the study. Serum was also obtained on day 7 and day 14 six hours after the morning dose for further serum cannabinoid measurement to establish relative steady state serum concentrations.
Analysis was performed using an exploratory (fit-for-purpose) method for fast measurement of thirteen cannabinoids and their metabolites at the Toxicology Research Laboratory, University of Illinois at Chicago. The reference standards for CBD and CBDA were obtained from Restek Corporation (Bellefonte, PA); all other reference and internal standards including CBG and CBGA were obtained from Cerilliant Corporation (Round Rock, TX). The concentrations of cannabinoids (CBD, CBDA, 7-COOH Cannabidiol (7-COOH-CBD), THC, THCA, cannabinol (CBN), cannabichromene (CBC), CBG, and CBGA) and their metabolites (7-OH-CBD, 7-COOH-CBD, COOH-THC, and COOH-THC-Glu) in dog sera were determined using high performance liquid chromatography with tandem mass spectrometry (LC-MS/MS) (Nexera X2 and LCMS 8050, Shimadzu Corp., Kyoto, Japan). […]

The nature of data set [2]: Manual resting heart rate monitoring. Format: in vivo, dog (beagle). Particulars: initial dosing and two-week period of treatment. The text has this:
Six intact male beagles all 2 years of age weighing between 18.6 and 22.2 kilograms body weight were housed at the Baker Institute for Animal Health and all procedures were approved by the Cornell University Institutional Animal Care and Use Committee (Protocol 2019-0001). All dogs underwent the fasted treatment trial for a two-week period and were then allowed 2 weeks of washout before beginning the fed stage of the trial which included ¼ of a 13 ounce can of a wet food (PURINA® Pro Plan Savory Chicken and Rice Formula, Nestle Purina, St. Louis, MO) at the time of dosing. Twenty-four hour pharmacokinetic analysis of serum cannabinoid levels was performed on day 1 after a single dose in the fed or fasted state. Then, twice daily dosing of treatment oil at both 7 am and 7 pm was performed on the following days for two weeks, and serum cannabinoids were measured. Prior to the study all dogs had blood drawn for a complete blood count and serum chemistry and again at the end of each phase of the 2 week study. […] Due to the potential for CBG/CBGA to affect heart rate, dogs were assessed manually for resting heart rates for 30 seconds and extrapolated to relative beats per minute after initial dosing at time points 0, 1, 2, 4, 12, 24 and 48 hours and again at day 7 and day 14 after morning dosing for both the fed and fasted arms of the study. […]

Data set [3] is described as follows: Physical and behavioral examinations for adverse events. Format: in vivo. Particulars: healthy dogs, oral 2 mg/kg twice daily for 2 weeks.
Source text: All dogs underwent the fasted treatment trial for a two-week period and were then allowed 2 weeks of washout before beginning the fed stage of the trial which included ¼ of a 13 ounce can of a wet food (PURINA® Pro Plan Savory Chicken and Rice Formula, Nestle Purina, St. Louis, MO) at the time of dosing. […] Prior to the study all dogs had blood drawn for a complete blood count and serum chemistry and again at the end of each phase of the 2 week study. Complete blood counts (white blood cells [WBC], hematocrit, hemoglobin, red blood cells [RBC], neutrophils, lymphocytes, platelets, monocytes, eosinophils, basophils) and serum biochemistry analyses (sodium, potassium, chloride, magnesium, calcium, phosphorus, albumin, total protein, globulin, urea nitrogen, creatinine, alkaline phosphatase [ALP], alanine aminotransferase [ALT], aspartate amino transferase [AST], cholesterol, total bilirubin, glucose and gamma glutamyl transferase [GGT]) were performed at the Cornell University Diagnostic Laboratory. […] Due to the potential for CBG/CBGA to affect heart rate, dogs were assessed manually for resting heart rates for 30 seconds and extrapolated to relative beats per minute after initial dosing at time points 0, 1, 2, 4, 12, 24 and 48 hours and again at day 7 and day 14 after morning dosing for both the fed and fasted arms of the study.

For `CCCCCc1cc(O)c(C/C=C(\C)CCC=C(C)C)c(O)c1C(=O)O` [CBGA, cannabigerolic acid], the concentration at 6 h turned out to be 437 ± 414 ng/mL in data set [1] (in vivo, week one, fasted); 564 ± 574 ng/mL in data set [1] (in vivo, week one, fed); 260 ± 300 ng/mL in data set [1] (in vivo, week two, fasted); 223 ± 197 ng/mL in data set [1] (in vivo, week two, fed). Further, in data set [1] (oral dosing over a 2-week period), the “absorption and retention, fold higher than what can be achieved with CBG” value was about 10 fold. Further, in data set [2], the “Bradycardia upon oral absorption” value is recorded as “does not induce bradycardia”. In data set [3], the “Short-term safety (serum biochemistry, blood count, physical exam and heart rate monitoring)” value was “appear to be safe”.

As to `CCCCCc1cc(O)c(C/C=C(\C)CCC=C(C)C)c(O)c1` [CBG, cannabigerol], the concentration at 6 h in data set [1] (serum, oral, week one, fasted) was determined as 5 ± 3.5 ng/mL; in data set [1] (serum, oral, week one, fed), 12.7 ± 12.3 ng/mL; in data set [1] (serum, oral, week two, fasted), 6.1 ± 6 ng/mL; in data set [1] (serum, oral, week two, fed), 9.6 ± 8.4 ng/mL. Further, in data set [3], the “Short-term safety (serum biochemistry, blood count, physical exam and heart rate monitoring)” value is “appear to be safe”.
